Here are results for one compound from patent publication US20260007634A1, “PHARMACEUTICAL COMPOSITIONS FOR THE TREATMENT OF ALLERGIC DISEASES” (KINKI UNIVERSITY, priority 2022, published 2026).

The test system of one test is Th17 cells. As to the kind of experiment: Th17 cell activation in inflammation-induced mouse model (IL-17A flow cytometry). In kind it is in vivo. The conditions noted are these: DBA/1J mice, Freund's complete adjuvant + bovine type2 collagen; oral 10 mg/kg daily 20 days; thymus cells; vs vehicle group. Here is the method: Equal volume mixtures of Freund's complete adjuvant and Bovine type2 collagen were administered to 6-week-old male DBA/1J mice (Japan SLC Inc.) at 0.1 mL (day 0 of the study). 21 days later, DBA/1J mice were again injected with 0.1 mL of the above mixture for secondary immunization. After the second immunization, mice were orally treated with 10 mg/kg of mangiferin 8a and 10 mg/kg of norathyriol daily for 20 days. 20 days later, thymus glands were harvested from mice and stained with anti-CD4 and anti-IL-17A antibodies, which are Th17 cell markers, and expression of IL-17A (CD4 positive) was measured using BD LSRFortessa.
In general terms: A flow cytometer gives signals particle by particle.

In a further test the test system is mouse B cells. Description: LPS-stimulated B cell proliferation (trypan blue). In kind it is cell-based. The conditions noted are these: 10 μM compound, 10 μg/mL LPS 3 days, control 1.66×10^4, LPS 4.25×10^4. The procedure:
The inhibitory effect of the compound on B cell proliferation was examined using mouse B cells.
B cells collected from mice were cultured in RPMI 1640 medium for 1 day. Then, 10 μM mangiferin 8a and 10 μM norathyriol were added to B cells, and after 1 day of culture, 10 μg/mL of lipopolysaccharide (LPS) was added to each for 3 days. After 3 days of incubation, the number of viable cells was determined by the trypan blue dye method. Note that LPS was used as an allergic inflammation inducer.
Referring to FIG. 48, the horizontal axis indicates treatment with each compound and the vertical axis indicates cell count (1×10^4 cells/mL). Only 0.5% DMSO in PBS, which was used to dissolve the reagent (compound), was added as control. The LPS group is referred to as the LPS group with 10 μg/mL LPS, the mangiferin 8a group is referred to as the mangiferin 8a group with LPS and mangiferin 8a, and the norathyriol group is referred to as the norathyriol group with LPS and norathyriol.

For another test, the system named is TSLP. As to the kind of experiment: Auricular tissue TSLP ELISA, atopic dermatitis mice. The conditions noted are these: day 7, topical application, control 317, vehicle 1533. In kind it is in vivo, mouse. The procedure:
MC903 at 2 nM was applied to the right auricle of a 6-week-old male Balb/c (Japan SLC Inc.). Starting 8 h later, 5% norathyriol aqueous solution (1 mL of ethanol containing […] of norathyriol), betamethasone ointment, and delgocitinib ointment were applied to the auricle for 7 days. The measurement of auricular skin swelling was calculated by calipers. The day on which the first application of the compound was made was defined as day 0. Betamethasone and delgocitinib are currently in clinical use in atopic dermatitis and were used as control drugs in this example.
The mouse TSLP ELISA kit (R&D) was used for this measurement.

Test [1] deals with Monocytes collected from mice. As to the kind of experiment: LPS-induced M1 macrophage activation (CD80 flow cytometry). In kind it is cell-based, mouse. The conditions noted are these: 10 μM compound, 10 μg/mL LPS, 10 days; vs LPS-added group. The procedure:
Monocytes collected from mice were cultured in RPMI 1640 medium for 1 day. Then, 10 μM mangiferin 8a and 10 μM norathyriol were added to Monocytes, and after 1 day of culture, 10 μg/mL of LPS was added, followed by 10 days of culture. After 10 days of culture, cells were stained with anti-CD11b and anti-F4/80 antibodies, markers of macrophages, and anti-CD80 antibody, marker of M1 macrophages, and CD80 (CD11b positive and F4/80 positive) expression was measured using BD LSRFortessa.

The subject of the next test is IL-6. As to the kind of experiment: LPS-stimulated IL-6 secretion in B cells (ELISA). Type of test: cell-based, mouse. The conditions noted are these: 10 μM compound, 10 μg/mL LPS 2 days, control 9.46, LPS 246.13. Here is the method: Mouse B cells were used to examine the inhibition of compounds on IL-6 secretion in LPS stimulation.
Mouse B cells were cultured in RPMI 1640 medium for 1 day. Then, 10 μM mangiferin 8a and 10 μM norathyriol were added to B cells, and after 1 day of culture, 10 μg/mL of LPS was added to each, followed by 2 days of culture.
Thus, the samples were divided into “control” with no treatment, “10 μg/mL LPS+10 μM mangiferin 8a” to which 10 μg/mL LPS and 10 μM mangiferin 8a were added, and “10 μg/mL LPS+10 μM norathyriol” to which 10 μg/mL LPS and 10 μM norathyriol were added and only 10 μg/mL LPS was added (“10 μg/L LPS”).
After these samples were incubated for 2 days, the culture supernatant was collected and IL-6 secretion was measured by enzyme-linked immunosorbent assay (ELISA). The mouse IL-6 ELISA kit (R&D) was used for this measurement.
Background: ELISA stands for enzyme-linked immunosorbent assay.

A further test concerns TNFα. As to the kind of experiment: BAFF-induced TNFα secretion in B cells (ELISA). Type of test: cell-based, mouse. The conditions noted are these: DBA/1J spleen B cells; 10 μM compound, 100 ng/mL BAFF, 7 days; control 11.34, BAFF only 230.64. Here is the method: Spleens were harvested from 6-week-old male DBA/1J mice and B cells were isolated. After isolation, the cells were cultured in RPMI 1640 medium for 1 day. Then, 10 μM mangiferin 8a and 10 μM norathyriol were added to B cells, and 100 ng/mL of BAFF was added to each 3 h later, and the cells were cultured for 7 days. After 7 days of culture, the culture supernatant was collected and TNFα secretion was measured by enzyme-linked immunosorbent assay (ELISA). This assay was performed using a mouse TNFα ELISA kit (R&D).

The test system of test [2] is B cells collected from mice. As to the kind of experiment: BAFF-induced differentiation into plasma cells (CD138 flow cytometry). The conditions noted are these: 100 ng/mL BAFF, 10 days; 100 μM mangiferin, 20 μM 1,3,5,6-tetrahydroxyxanthone, 10 μM others; vs BAFF-added group. Type of test: cell-based, mouse. Here is the method:
B cells collected from mice were cultured in RPMI 1640 medium for 1 day. Then, 100 μM mangiferin, 10 μM mangiferin 8a, 10 μM norathyriol, 20 μM 1,3,5,6-tetrahydroxyxanthone, 10 μM xanthohydrol, 10 μM α-mangostin, 10 μM of γ-mangostin were added to B cell, and after 1 day of culture, 100 ng/mL of BAFF was added, followed by 10 days of culture. After 10 days of culture, cells were stained with anti-CD138 antibody, a marker of plasma cells, and CD138 expression was measured using BD LSRFortessa.
In all figures, the horizontal axis represents the expression level of CD138 and the vertical axis represents the number of cells.

Take `O=c1c2cc(O)c(O)cc2oc2cc(O)cc(O)c12` [norathyriol, 1,3,6,7-tetrahydroxyxanthone]: the “IL-17A expression (CD4 positive)” value in the test on Th17 cells is reported as “markedly reduced”. The “number of viable cells (cell count)” value with mouse B cells was 1.16×10^4 cells/mL. This compound yielded a TSLP secretion in the test with TSLP of 1026 pg/mL. Moreover, the “CD80 expression (CD11b positive and F4/80 positive)” value in test [1] was “markedly reduced”. In the test with IL-6, the IL-6 secretion is 56.13 pg/mL. The TNFα secretion in the test with TNFα is on record as 45.07 pg/mL. In test [2], the CD138 expression result was “significantly decreased CD138 expression”.
